The subject of test [1] is Plasmodium chabaudi. The test is described as follows: 4-day test, P. chabaudi (10^7 pRBC i.v.) in pantetheinase-deficient A/J mice, blood parasitemia days 4 and 5. In kind it is in vivo. Particulars: A/J mice. How it is done: (§1) A/J and C57BL/6 (B6) mice were purchased from the Jackson Laboratories (Bar Harbor, Me.) and were housed at McGill University according to the guidelines of the Canadian Council on Animal Care. An LDH virus-free isolate of P. chabaudi AS was maintained by weekly passage in A/J mice. Mice were infected intravenously into the tail vein (i.v.) with 10^6 or 10^7 pRBC suspended in pyrogen-free saline. Following infection, the percentage of pRBC was determined daily on thin blood smears stained with Dif-Quik™ (Dade Behring, Newark, Del.), as described (Fortin A, et al. (2001) Proc Natl Acad Sci USA 98: 10793-10798).
(§2) Cysteamine hydrochloride (Sigma, Burlington ON) was prepared in PBS. Chloroquine hydrochloride, artesunate and dihydroartemisinin were provided by Dafra Pharmaceuticals; chloroquine was prepared in PBS, artesunate and DHA were prepared in 5% sodium bicarbonate and diluted in water to appropriate concentrations. All solutions were prepared fresh daily, filter sterilized and injections were performed intra-peritoneally (i.p) or subcutaneously (s.c.) for 4 days or according to treatment regimen. Mice were weighed prior to treatment to determine appropriate doses and injection volumes ranged from 100-400 μL per mouse. In the case of animals treated with two drugs, artemisinin derivatives were administered first (due to the short half life of cysteamine), followed by cysteamine 5-10 minutes later on alternate sides. Untreated control animals were injected with PBS alone.
(§3) Groups with normally distributed data points were compared using parametric unpaired t-tests, while groups with non-Gaussian distributions were compared using non-parametric Mann-Whitney tests. Survival differences were analyzed using the Log-Rank test. […] Standard error of percent inhibition was calculated from individual mice compared to the mean parasitemia level of the control group.
(§4) The effect of Cys on the potency and efficacy of the anti-malarial artemisinin derivatives was tested. […] Synergy (Tallarida R J (2001) J Pharmacol Exp Ther 298: 865-872) is defined as a total anti-malarial activity (reduction in blood parasitemia compared to untreated controls in a standard 4-day test) of the two compounds administered together being greater than the sum of the independent activities of the two compounds given alone. We tested combinations of Cys and either artesunate (ART) or dihydroartemisinin (DHA), the bioactive form of artemisinin. Pantetheinase-deficient mice were infected with P. chabaudi (10^7 pRBC, i.v.) and treated with Cys (170 mg/kg) and/or sub-optimal doses of ART (0.2 or 0.5 mg/kg) (FIG. 3A) or DHA (0.15 or 0.3 mg/kg) (FIG. 3B) from day 0-3 and parasitemia was monitored on days 4 and 5. […] Potentiation of the anti-malarial activity of ART (0.5 mg/kg) by Cys was also clearly evident in these C57BL/6 mice at both days 4 and 5 post-infection, with combined treatment causing a 65-71% reduction in parasitemia compared to PBS controls, greater than either compound tested alone (13-29%) (TABLE 1).
It was subsequently examined whether Cys potentiation of ART was dose dependent. Initially, Cys doses of 60, 100, 140 and 180 mg/kg were tested with a sub-optimal ART dose of 0.2 mg/kg. The drugs were administered from day 0-3 post infection, parasitemia was counted at day 4 and day 5 and the percent inhibition was calculated compared to PBS-treated controls (FIG. 4A). At 0.2 mg/kg, ART alone inhibits parasitemia by ˜20% (day 4) and 40% (day 5) while inhibition by Cys alone was partially dose dependent (varying between 10% and 25%). […] It was also assessed whether Cys could potentiate low doses of artesunate which, given alone, have no significant effect on parasitemia. In this experiment, Cys (170 mg/kg) was administered in combination, or not, with increasing doses of ART (0.05, 0.1, 0.2, 0.4 mg/kg) in the same 4-day experimental protocol.

The subject of test [2] is Plasmodium chabaudi. The test can be described thus: 4-day test, P. chabaudi (10^7 pRBC i.v.) in pantetheinase-sufficient C57BL/6 mice, blood parasitemia days 4 and 5. The settings on record: cysteamine 170 mg/kg i.p. alone, days 0-3. Format: in vivo. How it is done:
as §1, §2, §3, §4

Where [3] appears, read: cysteamine 170 mg/kg i.p. alone, days 0-3.

The text below walks through data of US9278086B2, “Combination therapy and uses thereof for treatment and prevention of parasitic infection and disease” (The Royal Institution for the Advancement of …, priority 2010, dated 2016).

Molecules are shown by their SMILES.

In the case of `NCCS` [Cysteamine], in the test with Plasmodium chabaudi [1] (setting [3]), the “Inhibition of parasitemia Day 4” value came out at 28 % PBS control and the “Inhibition of parasitemia Day 5” value was determined as 23 % PBS control. In addition, in the test with Plasmodium chabaudi [1] (lower Cys dose range (20, 40 and 60 mg/kg) with ART (FIG. 4B)), the “Cys doses as low as which show potentiation of the ART effect” value lay in the range of 20 to 40 mg/kg. In addition, in the test on Plasmodium chabaudi [2], the “Inhibition of parasitemia Day 4” value is reported as 13 % PBS control and the “Inhibition of parasitemia Day 5” value turned out to be 25 % PBS control.
